US12721823B2, “Methods and compositions for treatment of low circulating testosterone conditions” (University of Florida Research Foundation, Inc., priority 2021, dated 2026)

Experiments:
[1] = system: Sprague-Dawley F0 male rats; assay: Long-term serum testosterone after SEVO with or without surgery and TBI; type: in vivo, rat; conditions: young adult F0 male rats exposed to SEVO; FIG. 11A
Experimental: The Sprague-Dawley F0 male rats in the TBI group had SEVO exposure for 40 min to conduct a craniectomy and injury hub implantation on P60. After 60 min of recovery, they were reanesthetized with SEVO for 3 min to induce moderate TBI using a midline fluid percussion injury (FPI) model. The TBI+SEVO group had additional exposure to SEVO for 3 h on P62, P64, and P66. These subsequent exposures to SEVO, which may be needed to treat accompanying conditions, such as orthopedic, abdominal, or thoracic injuries, were used to study whether the effects of SEVO, surgery, and TBI interact to induce their effects. The Sham group had all exposures to SEVO and craniectomy but not TBI. The SEVO-SEVO group had all exposures to SEVO only. The control group had none of these procedures, except being placed in a new cage for an equivalent duration and number of times. A subset of F0 male rats was sacrificed on P66 1 h after the last exposure to SEVO for 3 h or at equivalent timepoints to collect blood to study acute neuroendocrine effects (FIG. 11A). The serum corticosterone levels before and after physical restraint for 30 min were measured ion P140. Ten days after completing the in vivo studies, the same rats were sacrificed and trunk blood samples were collected to measure serum levels of testosterone.

[2] = system: KCC2; assay: Immunofluorescence of cell surface KCC2 expression in the PVN of the hypothalamus; type: in vivo, rat; conditions: G1 male rats; 1 h after last exposure on P60; vs control
Experimental: Rats were anesthetized with sevoflurane and transcardially perfused with saline, followed by 4% paraformaldehyde (PFA) in 0.1 M phosphate buffer. The brains were collected and fixed in the 4% PFA overnight and then dehydrated in 30% sucrose solution in PBS at 4° C. for 2 days. The brains were cut into 18-um-thick coronal sections using a cryostat. After blocking with 10% norm goat serum for 1 h at room temperature, the slices were incubated with the primary antibody (rabbit anti-KCC2, 1:500; MilliporeSigma, Burlington, MA) in 10% norm goat serum at 4° C. overnight. After washing with PBS for 3×5 min, the slices were exposed to the secondary antibody, Alexafluor 549 goat anti-rabbit (Invitrogen, Carlsbad, CA). […] The immunofluorescence intensity of the KCC2-immunoreactive cells was measured using ImageJ software [National Institutes of Health (NIH)]. Three images from the PVN of the hypothalamus of each animal were taken and the average intensity values were calculated to use for statistical analysis. […] (FIGS. 2C-2F) Representative confocal images and quantitative analysis of the KCC2 immunoreactivity in the paraventricular nucleus (PVN) of the hypothalamus of the control and sevoflurane-exposed male (FIGS. 2C, 2E) and female (FIGS. 2D, 2F) rats. […]

For FCOC(C(F)(F)F)C(F)(F)F [sevoflurane, 1,1,1,3,3,3-hexafluoro-2-(fluoromethoxy)propane], the “serum levels of testosterone” value [1] was “long-term increase” and the “cell surface KCC2 expression (KCC2 density) in the PVN of the hypothalamus” value [2] was “reductions in KCC2 density”.
